Test results as given in PubChem BioAssay (NCI).
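Dose response: 5 concentrations. Exposure: 48 h. Format: 96-well plates. Endpoint: linear interpolation; highest concentration if not reached. GI50 is the concentration that inhibits growth by half. TGI: concentration producing complete growth inhibition.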

How the values were obtained:
Test in all cases: inhibition of tumour cell growth, NCI panel, 48 h
IGROV1 ovarian = tested on: IGROV1 ovarian
SK-MEL-5 melanoma = tested on: SK-MEL-5 melanoma
CCRF-CEM leukemia = tested on: CCRF-CEM leukemia
CAKI-1 renal = tested on: CAKI-1 renal
UACC-257 melanoma = tested on: UACC-257 melanoma
NCI-H23 lung = tested on: NCI-H23 lung
A549 NSCLC = tested on: A549 NSCLC
NCI/ADR-RES ovarian = tested on: NCI/ADR-RES ovarian
UACC-62 melanoma = tested on: UACC-62 melanoma
OVCAR-3 ovarian = tested on: OVCAR-3 ovarian

SMILES	TGI (IGROV1 ovarian)	TGI (SK-MEL-5 melanoma)	TGI (CCRF-CEM leukemia)	TGI (CAKI-1 renal)	TGI (UACC-257 melanoma)	TGI (NCI-H23 lung)	TGI (A549 NSCLC)	TGI (NCI/ADR-RES ovarian)	TGI (UACC-62 melanoma)	TGI (OVCAR-3 ovarian)	GI50 (IGROV1 ovarian)	GI50 (SK-MEL-5 melanoma)	GI50 (CCRF-CEM leukemia)	GI50 (CAKI-1 renal)	GI50 (UACC-257 melanoma)	GI50 (NCI-H23 lung)	GI50 (UACC-62 melanoma)	GI50 (OVCAR-3 ovarian)	GI50 (A549 NSCLC)	GI50 (NCI/ADR-RES ovarian)
CN1CC[C@@]2(c3cccc(O)c3)CC(=O)/C(=C/c3ccccc3)[C@H]1C2	36.2 µM	> 54.8 µM	> 27.7 µM	15.4 µM	30.8 µM	46.4 µM	36.9 µM	24.5 µM	–	–	–	–	–	–	–	–	–	–	–	–
N=c1c2c(C(N)=O)cn(C3OC(CO)C(O)C3O)c2ncn1O (stereo not drawn)	> 100 µM	0.174 µM	1.46 µM	0.399 µM	0.901 µM	0.358 µM	2.11 µM	0.447 µM	0.283 µM	0.943 µM	–	–	–	–	–	–	–	–	–	–
COc1ccc(/C=C2\C(=O)N(C3OC(COC(C)=O)C(OC(C)=O)C(OC(C)=O)C3OC(C)=O)c3ccccc3N=C2N)cc1 (stereo not drawn)	> 100 µM	23.4 µM	> 100 µM	> 100 µM	72.5 µM	59.1 µM	> 100 µM	83.9 µM	45.8 µM	65.1 µM	–	–	–	–	–	–	–	–	–	–
COc1cc(C=C2C(C)=NN(c3cccc(Cl)c3)C23SCC(=O)N3c2nc3ccccc3s2)ccc1O (stereo not drawn)	> 100 µM	40.7 µM	15.8 µM	> 96.2 µM	> 100 µM	84.2 µM	> 100 µM	> 96.7 µM	96.1 µM	> 80.1 µM	–	–	–	–	–	–	–	–	–	–
CCN(CC)CC(C)Nc1ccc([N+](=O)[O-])c2sc3ccccc3c(=O)c12 (stereo not drawn)	4.18 µM	2.26 µM	10.5 µM	4.09 µM	4.15 µM	16.1 µM	5.04 µM	> 58.5 µM	2.52 µM	11.5 µM	1.08 µM	1.08 µM	2.44 µM	0.657 µM	1.68 µM	2.42 µM	1.09 µM	2.88 µM	0.938 µM	2.65 µM
O=C(CCCCCCC(=O)Nc1ccc(N(CCCl)CCCl)cc1)NO	21.2 µM	2.92 µM	> 100 µM	11.2 µM	14.1 µM	8.64 µM	–	> 100 µM	5.09 µM	6.66 µM	2.51 µM	1.33 µM	0.405 µM	1.2 µM	2.27 µM	2.1 µM	1.09 µM	1.92 µM	–	5.4 µM
ONc1ncnc2nc[nH]c12	> 100 µM	> 100 µM	> 100 µM	> 100 µM	> 100 µM	> 100 µM	> 100 µM	–	> 100 µM	> 100 µM	–	–	–	–	–	–	–	–	–	–
Cc1nc(N)nc(N)c1-c1ccc(Cl)c(Cl)c1	> 100 µM	> 44.7 µM	> 100 µM	> 100 µM	> 100 µM	> 81 µM	> 100 µM	> 100 µM	> 51.1 µM	> 49 µM	–	–	–	–	–	–	–	–	–	–
O=S(=O)(O)c1ccc2cccc(N=Nc3c(O)ccc4ccccc34)c2c1	> 100 µM	> 100 µM	> 100 µM	> 100 µM	> 100 µM	> 100 µM	> 100 µM	> 100 µM	> 100 µM	> 100 µM	–	–	–	–	–	–	–	–	–	–
Cc1cccc2nc3c(C(=O)NCCN(C)C)cccc3cc12	7.11 µM	3.06 µM	5.41 µM	8.49 µM	3.44 µM	5.02 µM	3.5 µM	6.23 µM	3.38 µM	7.5 µM	–	–	–	–	–	–	–	–	–	–
CC1SC(c2ccccc2)N(CCc2cccs2)C1=O (stereo not drawn)	74.4 µM	3.15 µM	35.2 µM	16.2 µM	14.5 µM	15.1 µM	15.1 µM	21.1 µM	18.8 µM	13.3 µM	4.72 µM	1.67 µM	3.26 µM	3.15 µM	4.73 µM	3.23 µM	3.42 µM	3.03 µM	4.16 µM	3.12 µM
O=C(N/N=C(/c1ccccc1)C(F)(F)F)c1ccncc1	> 100 µM	> 100 µM	> 100 µM	> 100 µM	–	> 100 µM	–	> 100 µM	> 100 µM	> 100 µM	–	–	–	–	–	–	–	–	–	–
